# Where no end group is shown, it is not given here.
# What was measured:
# AKT1 = molecular target: T1, AKT1 (Homo sapiens, UniProt P31749); assay: AKT kinase assay with Ser-9 GSK-3 GST fusion protein substrate (western blot, phospho-specific antibody); format: biochemical; details: wild-type active AKT
# T1 construct: purchased Upstate Biotechnology
# Procedure: Since the observed effect of H-89 and forskolin on AKT activity in cultured cells could be interpreted as the result of the regulatory interference of other signaling pathways, in vitro analysis was carried using purified, active forms of AKT and PKAc to examine the direct result of this interaction on the kinase catalytic activity. […] This decrease in the catalytic activity of AKT by PKAc was inhibited when the PKA inhibitor was added to the reaction mixture. […] The decrease in the catalytic activity of AKT by PKAc was also observed with two mutants and active forms of AKT1, one with a deletion in the PH domain and the other one with a Ser473Asp mutation. As with wild-type AKT, the inhibitory effect of PKAc on the mutants was reversed in the presence of the PKA inhibitor peptide. […]
# For non-radioactive kinase assays, typically 25 ng of active AKT1 or PKAc (Upstate Biotechnology) was used in a kinase assay reaction buffer (20 mM MOPS, pH 7.2, 25 mM […]-glycerophosphate, 5 mM EGTA, 1 mM Na3VO4, 1 mM dithiothreitol, 75 mM MgCl2, and 0.5 mM ATP) in the presence of either 1 μL of Ser-9 GSK-3 GST fusion protein (Cell Signaling), or recombinant DARPP-32 (10 μg). […] A 5 μL aliquot of the reaction was transferred to phosphocellulose paper, washed for 30 minutes with dH2O, and CPM of samples read in scintillation counter.
# AKT [1] = assay: Cell penetration and co-localization of fluorescently labeled ZaTa with AKT; format: cell-based; details: immunofluorescence
# Text: Peptides can be very effective inhibitors since they efficiently bind to and inhibit enzymatic activity. However, intracellular delivery of peptides can limit their use. With the exception of a few peptides known as cell-penetrating peptides (CPPs), which have been recognized for their use in site-specific drug delivery, inhibitory peptides can have limited intracellular accumulation in in vivo enzymatic studies. […] Based on the primary structure of the ZaTa peptide (i.e., a peptide having a basic arm of several basic residues at the N-terminus and a polar arm composed of several residues with free hydroxyl group at the C-terminus) and in vivo inhibitory effect in the brain, it was determined whether ZaTa peptide was a CPP. The ZaTa peptide was labeled with a red fluorescent dye at its N-terminus given that its C-terminus was important for inhibitory activity. The efficiency of the labeling and the purity of the labeled peptide were assessed by mass spectrometry.
# These different localization patterns of ZaTa within the cell were usually accompanied with redistribution of AKT to the site of ZaTa.
# Cell cultures were analyzed by growing cells (1×10^4) on coverslips, fixation for 10 minutes in phosphate-buffered saline (PBS) plus 3.7% formaldehyde, and permeabilization for 2 minutes with cold acetone. […]
# AKT [2] = assay: Western blot of AKT substrate phosphorylation in N2a cells; format: cell-based; details: different doses
# Procedure: AKT affects a network that positively regulates G1/S cell cycle progression through several mechanisms that involve the expression and subcellular localization of the CDK inhibitor p27^Kip1 (Blain and Massague (2002) Nat. Med. 8:1076-1078; Liang, et al. (2002) supra; Shin, et al. (2002) supra; Viglietto, et al. (2002) supra). Based on these studies, the effect of ZaTa peptide on cell proliferation was assessed. […] Capturing live images of cultured N2a cells in the presence of different concentrations of the ZaTa peptide confirmed an obvious reduction in the number of dividing cells.
# N2a cells were cultured in Dulbecco's Modified Eagle's Medium (DMEM) and OPTI-MEM® media (50% of each; GIBCO-BRL, Gaithersberg, Md.) supplemented with 5% fetal bovine serum (FBS; SIGMA, St. Louis, Mo.), penicillin-streptomycin and L-Glutamine (GIBCO-BRL). […] Protein concentration was measured using a commercially available protein assay (BIO-RAD, […].) protein assay and spectrometry at 595 Å. […] The membrane was probed with primary and secondary antibodies and signals were detected by chemiluminescence followed by autoradiography.
# T1 sequence (P31749 whole entry, the tested form may be a part): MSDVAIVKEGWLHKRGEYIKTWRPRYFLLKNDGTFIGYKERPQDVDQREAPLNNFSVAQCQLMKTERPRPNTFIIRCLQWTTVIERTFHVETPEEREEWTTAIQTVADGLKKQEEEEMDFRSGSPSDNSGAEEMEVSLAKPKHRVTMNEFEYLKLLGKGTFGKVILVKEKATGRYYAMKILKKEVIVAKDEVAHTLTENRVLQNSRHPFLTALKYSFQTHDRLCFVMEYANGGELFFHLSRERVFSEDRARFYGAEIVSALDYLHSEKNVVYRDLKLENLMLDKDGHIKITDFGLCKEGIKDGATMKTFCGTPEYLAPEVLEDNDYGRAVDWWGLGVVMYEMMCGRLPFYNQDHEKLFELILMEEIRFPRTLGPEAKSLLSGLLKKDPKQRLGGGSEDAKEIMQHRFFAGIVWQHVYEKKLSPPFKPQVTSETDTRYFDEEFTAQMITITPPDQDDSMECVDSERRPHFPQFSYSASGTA
sequence,measurement,setting,value
AKRVKGRTWTLCGTPEY [ZaTa],"AKT catalytic activity, phosphorylation level of Ser-9 GSK-3 GST substrate",AKT1,significantly reduced
same,phosphorylation level of AKT substrates in cells entered by ZaTa,AKT [1],decrease in the phosphorylation level of AKT substrates
same,phosphorylation level of AKT substrates in N2a cells,AKT [2],concomitant decrease

# Source: patent US8541670B2, “Compositions and methods for inhibiting tumor cell growth” (priority 2007, dated 2013)
